In patent US20240246942A1, “KINASE INHIBITORS FOR THE TREATMENT OF NEURODEGENERATIVE DISEASES” (priority 2020, published 2024):

Legend:
Assay in all cases: biochemical
[1] = target: T1, panel of 374 wild-type kinases (Homo sapiens, UniProt Q16539); conditions: P38a/MAPK14, read-out: % Enzyme Activity (relative to DMSO controls)
T1 construct: purchased Reaction Biology Corporation

[2] = target: T2, panel of 374 wild-type kinases (Homo sapiens, UniProt O43318); conditions: read-out: % Enzyme Activity (relative to DMSO controls), kinase TAK1
T2 construct: purchased Reaction Biology Corporation
T2 sequence (O43318 1-606): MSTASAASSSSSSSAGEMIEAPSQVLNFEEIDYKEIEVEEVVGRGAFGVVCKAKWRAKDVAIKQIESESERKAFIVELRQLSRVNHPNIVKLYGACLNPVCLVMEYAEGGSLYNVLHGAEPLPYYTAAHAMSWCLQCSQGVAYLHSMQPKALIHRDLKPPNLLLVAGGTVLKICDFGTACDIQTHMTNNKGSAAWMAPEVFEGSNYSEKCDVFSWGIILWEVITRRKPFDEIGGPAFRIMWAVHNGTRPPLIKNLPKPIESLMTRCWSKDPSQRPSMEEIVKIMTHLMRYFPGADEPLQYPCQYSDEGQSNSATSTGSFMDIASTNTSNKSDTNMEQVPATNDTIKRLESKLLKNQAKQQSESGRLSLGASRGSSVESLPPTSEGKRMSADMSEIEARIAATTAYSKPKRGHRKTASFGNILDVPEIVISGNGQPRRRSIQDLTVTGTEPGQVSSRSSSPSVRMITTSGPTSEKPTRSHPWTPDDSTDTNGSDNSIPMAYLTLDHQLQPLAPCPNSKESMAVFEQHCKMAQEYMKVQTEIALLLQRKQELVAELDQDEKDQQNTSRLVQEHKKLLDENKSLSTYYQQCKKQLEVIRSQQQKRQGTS

[3] = target: T3, panel of 374 wild-type kinases (Homo sapiens, UniProt Q13470); conditions: read-out: % Enzyme Activity (relative to DMSO controls), kinase TNK1
T3 construct: purchased Reaction Biology Corporation
T3 sequence (Q13470 1-666): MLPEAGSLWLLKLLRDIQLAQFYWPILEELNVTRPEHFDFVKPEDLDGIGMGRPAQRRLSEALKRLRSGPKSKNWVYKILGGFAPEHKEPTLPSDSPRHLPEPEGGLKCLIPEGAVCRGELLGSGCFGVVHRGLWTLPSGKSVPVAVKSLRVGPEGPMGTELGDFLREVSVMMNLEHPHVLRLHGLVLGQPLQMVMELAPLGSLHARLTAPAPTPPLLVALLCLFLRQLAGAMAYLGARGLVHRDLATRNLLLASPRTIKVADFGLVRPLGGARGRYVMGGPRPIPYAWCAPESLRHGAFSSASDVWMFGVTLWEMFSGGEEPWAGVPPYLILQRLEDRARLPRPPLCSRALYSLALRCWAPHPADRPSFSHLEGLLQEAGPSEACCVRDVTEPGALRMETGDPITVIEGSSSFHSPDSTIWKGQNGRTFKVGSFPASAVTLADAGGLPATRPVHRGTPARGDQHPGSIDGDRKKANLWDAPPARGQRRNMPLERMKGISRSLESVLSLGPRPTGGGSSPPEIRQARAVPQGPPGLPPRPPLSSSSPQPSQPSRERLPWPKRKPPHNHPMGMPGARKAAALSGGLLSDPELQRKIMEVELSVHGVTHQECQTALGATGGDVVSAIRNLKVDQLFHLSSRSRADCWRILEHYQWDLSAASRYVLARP

[4] = target: T4, panel of 374 wild-type kinases (Homo sapiens, UniProt P52564); conditions: read-out: % Enzyme Activity (relative to DMSO controls), MKK6
T4 construct: purchased Reaction Biology Corporation
T4 sequence (P52564 1-334): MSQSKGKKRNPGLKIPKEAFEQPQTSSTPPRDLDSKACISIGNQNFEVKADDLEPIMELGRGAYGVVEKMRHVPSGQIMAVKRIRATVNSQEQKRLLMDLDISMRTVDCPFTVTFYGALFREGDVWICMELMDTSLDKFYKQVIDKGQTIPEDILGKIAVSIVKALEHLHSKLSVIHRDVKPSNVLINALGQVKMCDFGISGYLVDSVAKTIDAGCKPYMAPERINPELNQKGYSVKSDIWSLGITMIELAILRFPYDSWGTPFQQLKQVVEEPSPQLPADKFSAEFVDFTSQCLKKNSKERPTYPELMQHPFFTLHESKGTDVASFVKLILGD

[5] = target: T5, panel of 374 wild-type kinases (Homo sapiens, UniProt Q8TDC3); conditions: read-out: % Enzyme Activity (relative to DMSO controls), BRSK1
T5 construct: purchased Reaction Biology Corporation
T5 sequence (Q8TDC3 1-778): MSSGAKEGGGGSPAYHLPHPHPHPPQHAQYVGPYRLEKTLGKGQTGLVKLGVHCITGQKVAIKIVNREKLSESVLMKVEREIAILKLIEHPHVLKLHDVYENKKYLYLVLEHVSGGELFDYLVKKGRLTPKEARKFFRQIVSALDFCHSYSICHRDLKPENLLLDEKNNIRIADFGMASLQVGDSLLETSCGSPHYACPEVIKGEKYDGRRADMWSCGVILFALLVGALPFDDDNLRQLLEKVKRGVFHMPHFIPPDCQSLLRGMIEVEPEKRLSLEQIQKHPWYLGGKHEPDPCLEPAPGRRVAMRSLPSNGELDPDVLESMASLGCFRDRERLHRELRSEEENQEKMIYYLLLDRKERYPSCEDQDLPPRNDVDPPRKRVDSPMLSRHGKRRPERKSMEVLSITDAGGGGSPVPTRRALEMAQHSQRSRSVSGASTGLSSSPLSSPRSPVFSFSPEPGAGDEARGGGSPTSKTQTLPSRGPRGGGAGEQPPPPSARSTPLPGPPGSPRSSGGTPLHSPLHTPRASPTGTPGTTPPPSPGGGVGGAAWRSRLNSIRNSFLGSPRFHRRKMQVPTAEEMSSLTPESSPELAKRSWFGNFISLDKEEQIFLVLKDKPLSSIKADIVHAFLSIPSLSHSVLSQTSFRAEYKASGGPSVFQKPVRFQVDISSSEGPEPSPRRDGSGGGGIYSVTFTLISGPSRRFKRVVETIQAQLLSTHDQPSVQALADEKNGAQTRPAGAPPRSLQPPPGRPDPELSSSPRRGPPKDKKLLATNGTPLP

[6] = target: T6, panel of 374 wild-type kinases (Homo sapiens, UniProt Q52WX2); conditions: read-out: % Enzyme Activity (relative to DMSO controls), kinase SBK1
T6 construct: purchased Reaction Biology Corporation

[7] = target: T7, panel of 374 wild-type kinases (Homo sapiens, UniProt P28482); conditions: read-out: % Enzyme Activity (relative to DMSO controls), ERK2/MAPK1
T7 construct: purchased Reaction Biology Corporation
T7 sequence (P28482 whole entry): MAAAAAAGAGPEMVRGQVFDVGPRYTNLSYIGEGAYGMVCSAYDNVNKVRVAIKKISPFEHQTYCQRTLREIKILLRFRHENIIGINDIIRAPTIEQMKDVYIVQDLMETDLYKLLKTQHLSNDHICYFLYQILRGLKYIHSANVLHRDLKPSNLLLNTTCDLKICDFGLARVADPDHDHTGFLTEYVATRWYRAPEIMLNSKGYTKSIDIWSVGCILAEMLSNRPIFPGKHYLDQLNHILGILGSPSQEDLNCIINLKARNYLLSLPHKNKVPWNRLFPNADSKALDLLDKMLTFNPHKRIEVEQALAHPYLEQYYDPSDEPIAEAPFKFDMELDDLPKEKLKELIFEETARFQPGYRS

T1 sequence (Q16539 whole entry): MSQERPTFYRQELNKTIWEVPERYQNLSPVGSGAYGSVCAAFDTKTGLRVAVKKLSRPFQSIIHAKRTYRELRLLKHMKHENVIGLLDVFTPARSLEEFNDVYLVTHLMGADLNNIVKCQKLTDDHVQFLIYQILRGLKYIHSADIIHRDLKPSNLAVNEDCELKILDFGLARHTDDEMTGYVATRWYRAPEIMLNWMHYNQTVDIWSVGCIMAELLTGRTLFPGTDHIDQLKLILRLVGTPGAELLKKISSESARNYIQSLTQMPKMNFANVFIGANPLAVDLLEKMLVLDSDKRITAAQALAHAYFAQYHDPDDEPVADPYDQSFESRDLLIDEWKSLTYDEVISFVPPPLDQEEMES
T6 sequence (Q52WX2 whole entry): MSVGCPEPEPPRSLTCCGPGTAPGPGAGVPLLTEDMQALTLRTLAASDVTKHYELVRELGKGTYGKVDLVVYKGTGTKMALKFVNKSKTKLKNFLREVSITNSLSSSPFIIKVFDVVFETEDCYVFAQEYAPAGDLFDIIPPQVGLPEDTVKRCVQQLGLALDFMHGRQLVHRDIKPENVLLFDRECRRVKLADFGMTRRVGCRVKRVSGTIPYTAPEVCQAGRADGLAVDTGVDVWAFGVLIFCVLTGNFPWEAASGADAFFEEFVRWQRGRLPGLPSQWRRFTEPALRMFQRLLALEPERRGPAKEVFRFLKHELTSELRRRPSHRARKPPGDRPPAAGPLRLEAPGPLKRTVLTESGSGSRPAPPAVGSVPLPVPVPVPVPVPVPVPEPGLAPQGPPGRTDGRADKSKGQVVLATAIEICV

SMILES | remaining activity at 5 µM [1] | remaining activity at 5 µM [2] | remaining activity at 5 µM [3] | remaining activity at 5 µM [4] | remaining activity at 5 µM [5] | remaining activity at 5 µM [6] | remaining activity at 5 µM [7] | remaining activity at 10 µM ([1]; 10 uM) | remaining activity at 10 µM ([2]; 10 uM) | remaining activity at 10 µM ([3]; 10 uM) | remaining activity at 10 µM ([4]; 10 uM) | remaining activity at 10 µM ([5]; 10 uM) | remaining activity at 10 µM ([6]; 10 uM) | remaining activity at 10 µM ([7]; 10 uM)
O=C(Nc1cnn(-c2csc(C(=O)NC3COC3)c2)c1)Nc1ccccc1Cl [Compound 17, 4-(4-(3-(2-chlorophenyl)ureido)-1H-pyrazol-1-yl)-N-(oxetan-3-yl)thiophene-2-carboxamide] | 142% | 98% | 100% | 96.4% | 85.5% | 99.1% | 110% | – | – | – | – | – | – | –
O=C(Nc1cnn(-c2csc(C(=O)NC3COC3)c2)c1)Nc1c(F)cccc1Cl [Compound 25, 4-(4-(3-(2-chloro-6-fluorophenyl)ureido)-1H-pyrazol-1-yl)-N-(oxetan-3-yl)thiophene-2-carboxamide] | 105% | 109% | 91.5% | 94.4% | 99.4% | 97.7% | 85.9% | – | – | – | – | – | – | –
Cc1sc(C(=O)NC2COC2)cc1-n1cc(NC(=O)Nc2c(F)cccc2Cl)cn1 [Compound 27, 4-(4-(3-(2-chloro-6-fluorophenyl)ureido)-1H-pyrazol-1-yl)-5-methyl-N-(oxetan-3-yl)thiophene-2-carboxamide] | – | – | – | – | – | – | – | 93.2% | 98.4% | 105% | 86.4% | 87.8% | 87.5% | 90.8%
